Test results published in US6737383B1, “Herbicidal oxadiazolidines” (priority 1999, dated 2004).

Columns and labels:
bedstraw = experiment: Test B pre/postemergence bedstraw; format: in vivo, Galium aparine
Method in brief: (§1)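 Test chemicals in a non-phytotoxic solvent mixture with surfactant were sprayed preemergence onto planted seeds and postemergence onto plants 2 to 18 cm tall (1- to 4-leaf stage). After twelve to sixteen days in a greenhouse, injury was visually rated against untreated controls from 0 (no effect) to 10 (complete control).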

blackgrass = experiment: Test B pre/postemergence blackgrass; format: in vivo, Alopecurus myosuroides
Method in brief: as §1

surinam grass = experiment: Test B pre/postemergence surinam grass; format: in vivo, Brachiaria decumbens
Method in brief: as §1

cocklebur = experiment: Test B pre/postemergence cocklebur; format: in vivo, Xanthium strumarium
Method in brief: as §1

corn = experiment: Test B pre/postemergence corn; format: in vivo, Zea mays
Method in brief: as §1

giant foxtail = experiment: Test B pre/postemergence giant foxtail; format: in vivo, Setaria faberii
Method in brief: as §1

morningglory = experiment: Test B pre/postemergence morningglory; format: in vivo, Ipomoea hederacea
Method in brief: as §1

pigweed = experiment: Test B pre/postemergence pigweed; format: in vivo, Amaranthus retroflexus
Method in brief: as §1

rape = experiment: Test B pre/postemergence rape; format: in vivo, Brassica napus
Method in brief: as §1

soybean = experiment: Test B pre/postemergence soybean; format: in vivo, Glycine max
Method in brief: as §1

sugar beet = experiment: Test B pre/postemergence sugar beet; format: in vivo, Beta vulgaris; conditions: for Plant response rating, Sugarbeets: Rate 250 g/ha
Method in brief: as §1

velvetleaf = experiment: Test B pre/postemergence velvetleaf; format: in vivo, Abutilon theophrasti; conditions: for Plant response rating, Velvetleaf: Rate 250 g/ha
Method in brief: as §1

wheat = experiment: Test B pre/postemergence wheat; format: in vivo, Triticum aestivum; conditions: for Plant response rating, Wheat: Rate 250 g/ha
Method in brief: as §1

wild oat = experiment: Test B pre/postemergence wild oat; format: in vivo, Avena fatua; conditions: for Plant response rating, Wild oats: Rate 250 g/ha
Method in brief: as §1

rice = experiment: Test B flood test rice; format: in vivo, Oryza sativa
Method in brief: (§2)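 Plants were grown to the 2-leaf stage before treatment with test chemical, then held in a greenhouse for twelve to sixteen days. Injury was visually rated against untreated controls on a 0–10 scale, where 0 is no effect and 10 is complete control.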

smallflower flatsedge = experiment: Test B flood test smallflower flatsedge; format: in vivo, Cyperus difformis
Method in brief: as §2

[1] = Preemergence, Rate 62 g/ha, scale 0 to 10 (0 no effect, 10 complete control)
[2] = Preemergence, Rate 125 g/ha, scale 0 to 10 (0 no effect, 10 complete control)
[3] = Preemergence, Rate 250 g/ha, scale of 0 to 10 where 0 is no effect and 10 is complete control
[4] = Preemergence, Rate 500 g/ha, scale 0 (no effect) to 10 (complete control)
[5] = Rate 500 g/ha, Postemergence, scale 0 to 10, 0 no effect, 10 complete control
[6] = Postemergence, Rate 62 g/ha, scale 0 to 10, 0 is no effect, 10 is complete control
[7] = Postemergence, Rate 125 g/ha, scale of 0 to 10 where 0 is no effect and 10 is complete control
[8] = Postemergence, Rate 250 g/ha, scale 0 to 10, 0 no effect, 10 complete control
[9] = Rate 250 g/ha, Postemergence, scale 0 to 10, 0 is no effect, 10 is complete control
[10] = Preemergence, Rate 125 g/ha, 0 is no effect, 10 is complete control
[11] = Preemergence, scale of 0 to 10 where 0 is no effect and 10 is complete control
[12] = Postemergence, scale 0 to 10, 0 is no effect, 10 is complete control
[13] = Postemergence (flood test species), Rate 125 g/ha, scale of 0 to 10 where 0 is no effect and 10 is complete control
[14] = Rate 250 g/ha, Postemergence (flood test), scale 0 to 10, 0 is no effect, 10 is complete control
[15] = Rate 250 g/ha, headed Pre-emergence (flood test species), scale 0 to 10 (0 no effect, 10 complete control)
[16] = Rate 500 g/ha, headed Pre-emergence (flood test species), scale 0 to 10 (0 no effect, 10 complete control)
[17] = Rate 500 g/ha, listed under Postemergence (flood test species), scale 0 to 10, 0 no effect, 10 complete control
[18] = Rate 2000 g/ha, Pre-emergence (as headed), scale 0 to 10

C=CCn1c(=O)on(C(=O)N(c2ccccc2)C(C)C)c1=O [Compound 93]
Bedstraw plant response rating (bedstraw; [1]): 0
Plant response rating, Bedstraw (bedstraw; [2]): 0
Plant response rating, Bedstraw (bedstraw; [3]): 0
Bedstraw plant response rating (bedstraw; [4]): 3
Bedstraw plant response rating (bedstraw; [5]): 7
Blackgrass plant response rating (blackgrass; [6]): 7
Blackgrass plant response rating (blackgrass; [7]): 8
Blackgrass plant response rating (blackgrass; [8]): 8
Blackgrass plant response rating (blackgrass; [1]): 9
Plant response rating, Blackgrass (blackgrass; [2]): 10
Plant response rating, Blackgrass (blackgrass; [3]): 10
Blackgrass plant response rating (blackgrass; [4]): 10
Blackgrass plant response rating (blackgrass; [5]): 8
B. signalgrass plant response rating (surinam grass; [6]): 3
B. signalgrass plant response rating (surinam grass; [8]): 8
Plant response rating, B. signalgrass (surinam grass; [2]): 7
B. signalgrass plant response rating (surinam grass; [4]): 8
B. signalgrass plant response rating (surinam grass; Rate 125 g/ha, Postemergence, scale 0 to 10, 0 no effect, 10 complete control): 5
B. signalgrass plant response rating (surinam grass; Rate 500 g/ha, Postemergence, scale of 0 to 10 where 0 is no effect and 10 is complete control): 9
Cocklebur plant response rating (cocklebur; [6]): 0
Cocklebur plant response rating (cocklebur; [7]): 1
Cocklebur plant response rating (cocklebur; [8]): 2
Cocklebur plant response rating (cocklebur; [1]): 2
Plant response rating, Cocklebur (cocklebur; [2]): 2
Cocklebur plant response rating (cocklebur; [5]): 4
Corn plant response rating (corn; [6]): 3
Corn plant response rating (corn; [7]): 4
Corn plant response rating (corn; [8]): 5
Corn plant response rating (corn; [1]): 3
Plant response rating, Corn (corn; [2]): 7
Plant response rating, Corn (corn; [3]): 8
Corn plant response rating (corn; [4]): 9
Corn plant response rating (corn; [5]): 5
Giant foxtail plant response rating (giant foxtail; [6]): 6
Giant foxtail plant response rating (giant foxtail; [7]): 7
Giant foxtail plant response rating (giant foxtail; [8]): 9
Giant foxtail plant response rating (giant foxtail; [1]): 10
Plant response rating, Giant foxtail (giant foxtail; [2]): 10
Plant response rating, Giant foxtail (giant foxtail; [3]): 10
Giant foxtail plant response rating (giant foxtail; [4]): 10
Giant foxtail plant response rating (giant foxtail; [5]): 9
Morningglory plant response rating (morningglory; [6]): 6
Morningglory plant response rating (morningglory; [7]): 10
Morningglory plant response rating (morningglory; [8]): 10
Morningglory plant response rating (morningglory; [1]): 0
Plant response rating, Morningglory (morningglory; [2]): 0
Plant response rating, Morningglory (morningglory; [3]): 3
Morningglory plant response rating (morningglory; [4]): 6
Morningglory plant response rating (morningglory; [5]): 10
Redroot pigweed plant response rating (pigweed; [6]): 2
Redroot pigweed plant response rating (pigweed; [7]): 4
Redroot pigweed plant response rating (pigweed; [1]): 9
Plant response rating, Redroot pigweed (pigweed; [2]): 8
Plant response rating, Redroot pigweed (pigweed; [3]): 10
Redroot pigweed plant response rating (pigweed; [4]): 10
Plant response rating, Redroot pigweed (pigweed; [9]): 7
Redroot pigweed plant response rating (pigweed; [5]): 7
Rape plant response rating (rape; [6]): 2
Rape plant response rating (rape; [7]): 3
Rape plant response rating (rape; [8]): 4
Rape plant response rating (rape; [1]): 3
Plant response rating, Rape (rape; [2]): 7
Plant response rating, Rape (rape; [3]): 8
Rape plant response rating (rape; [4]): 10
Rape plant response rating (rape; [5]): 5
Soybean plant response rating (soybean; [6]): 4
Soybean plant response rating (soybean; [7]): 5
Soybean plant response rating (soybean; [1]): 0
Plant response rating, Soybean (soybean; [2]): 2
Plant response rating, Soybean (soybean; [3]): 7
Soybean plant response rating (soybean; [4]): 9
Plant response rating, Soybean (soybean; [9]): 5
Soybean plant response rating (soybean; [5]): 7
Sugarbeets plant response rating (sugar beet; [6]): 2
Sugarbeets plant response rating (sugar beet; [7]): 3
Sugarbeets plant response rating (sugar beet; [1]): 6
Sugarbeets plant response rating (0 to 10 scale) (sugar beet; [10]): 7
Plant response rating, Sugarbeets (sugar beet; [11]): 8
Sugarbeets plant response rating (sugar beet; [4]): 9
Plant response rating, Sugarbeets (sugar beet; [12]): 3
Sugarbeets plant response rating (sugar beet; [5]): 5
Velvetleaf plant response rating (velvetleaf; [6]): 0
Velvetleaf plant response rating (velvetleaf; [7]): 0
Velvetleaf plant response rating (velvetleaf; [1]): 5
Velvetleaf plant response rating (0 to 10 scale) (velvetleaf; [10]): 6
Plant response rating, Velvetleaf (velvetleaf; [11]): 6
Velvetleaf plant response rating (velvetleaf; [4]): 10
Plant response rating, Velvetleaf (velvetleaf; [12]): 0
Velvetleaf plant response rating (velvetleaf; [5]): 6
Wheat plant response rating (wheat; [6]): 0
Wheat plant response rating (wheat; [7]): 3
Wheat plant response rating (wheat; [1]): 3
Wheat plant response rating (0 to 10 scale) (wheat; [10]): 3
Plant response rating, Wheat (wheat; [11]): 6
Wheat plant response rating (wheat; [4]): 8
Plant response rating, Wheat (wheat; [12]): 4
Wheat plant response rating (wheat; [5]): 5
Wild oats plant response rating (wild oat; [6]): 0
Wild oats plant response rating (wild oat; [7]): 0
Wild oats plant response rating (wild oat; [1]): 8
Wild oats plant response rating (0 to 10 scale) (wild oat; [10]): 8
Plant response rating, Wild oats (wild oat; [11]): 10
Wild oats plant response rating (wild oat; [4]): 10
Plant response rating, Wild oats (wild oat; [12]): 2
Wild oats plant response rating (wild oat; [5]): 5
Rice plant response rating (rice; [13]): 0
Rice plant response rating (rice; [6]): 0
Plant response rating, Rice (rice; [14]): 0
Rice plant response rating (rice; [15]): 0
Plant response rating, Rice (rice; [16]): 0
Rice plant response rating (rice; [17]): 4
Rice plant response rating (rice; Rate 1000 g/ha, Pre-emergence (as headed), scale 0 to 10): 0
Rice plant response rating (rice; [18]): 0
S. Flatsedge plant response rating (smallflower flatsedge; [13]): 0
S. Flatsedge plant response rating (smallflower flatsedge; [6]): 0
S. Flatsedge plant response rating (smallflower flatsedge; Pre-emergence, Rate 1000 g/ha, scale 0 to 10 (0 no effect, 10 complete control)): 0
Plant response rating, S. Flatsedge (smallflower flatsedge; [14]): 0
S. Flatsedge plant response rating (smallflower flatsedge; [15]): 0
Plant response rating, S. Flatsedge (smallflower flatsedge; [16]): 0
S. Flatsedge plant response rating (smallflower flatsedge; [17]): 6
S. Flatsedge plant response rating (smallflower flatsedge; [18]): 0
